# ChEMBL document CHEMBL3112430, “Biological evaluation of new antitumor taxoids: alteration of substitution at the C-7 and C-10 of docetaxel” (2014)
# Calls of active or inactive are those of the source. The calls are words filed in the database; no cut-off is given here.
# What was measured:
# Assay type in all cases: functional
# HL-60 = experiment: Growth inhibition of human HL60 cells by MTT assay
# MCF7 = experiment: Growth inhibition of human MCF7 cells by MTT assay
# [1] = Growth inhibition of human Bel7402 cells by MTT assay; settings: Bel-7402
# HeLa = experiment: Growth inhibition of human HeLa cells by MTT assay
# DU-145 = experiment: Growth inhibition of human DU145 cells by MTT assay
# [2] = (§1) Growth inhibition of human HT1080 cells by MTT assay; settings: HT-1080
# K562 = experiment: Growth inhibition of human K562 cells by MTT assay
# A549 [3] = experiment: Growth inhibition of human A549 cells by MTT assay
# [4] = Growth inhibition of human BGC823 cells by MTT assay; settings: BGC-823
# [5] = Growth inhibition of human U937 cells by MTT assay; settings: U-937
# [6] = Growth inhibition of human SGC7901 cells by MTT assay; settings: SGC-7901
# Huh-7 = experiment: Growth inhibition of human HuH7 cells by MTT assay
# A-431 = experiment: Growth inhibition of human A431 cells by MTT assay
# [7] = Growth inhibition of human PANC1 cells by MTT assay; settings: PANC-1
# MOLT-4 = experiment: Growth inhibition of human MOLT4 cells by MTT assay
# A549 [8] = experiment: Ratio of taxol GI50 to compound GI50 for human A549 cells
# HT-1080 = experiment: as §1
SMILES,GI50 (HL-60) [nM],GI50 (MCF7) [nM],GI50 (HeLa) [nM],GI50 (DU-145) [nM],GI50 (K562),GI50 (A549 [3]) [nM],GI50 (Huh-7) [nM],GI50 (A-431) [nM],GI50 (MOLT-4) [nM],GI50 (HT-1080),GI50 [1] [nM],GI50 [2] [nM],GI50 [4] [nM],GI50 [5] [nM],GI50 [6] [nM],GI50 [7] [nM],RatioGI50 (A549 [8])
CC(=O)O[C@@]12CO[C@@H]1C[C@H](OCCO)[C@@]1(C)C(=O)[C@H](OCCO)C3=C(C)[C@@H](OC(=O)[C@H](O)[C@@H](NC(=O)OC(C)(C)C)c4ccccc4)C[C@@](O)([C@@H](OC(=O)c4ccccc4)[C@H]21)C3(C)C,118,7.41,6.65,413,470 nM,6.76,113,38.5,,,56,472,128,7.41,92.5,296,
COCCO[C@H]1C(=O)[C@]2(C)[C@@H](OCCOC)C[C@H]3OC[C@@]3(OC(C)=O)[C@H]2[C@H](OC(=O)c2ccccc2)[C@]2(O)C[C@H](OC(=O)[C@H](O)[C@@H](NC(=O)OC(C)(C)C)c3ccccc3)C(C)=C1C2(C)C,57.9,345,407,982,936 nM,3.1,227,6.73,749,,57.3,480,2,38.8,68.2,295,
COCO[C@H]1C(=O)[C@]2(C)[C@@H](OCOC)C[C@H]3OC[C@@]3(OC(C)=O)[C@H]2[C@H](OC(=O)c2ccccc2)[C@]2(O)C[C@H](OC(=O)[C@H](O)[C@@H](NC(=O)OC(C)(C)C)c3ccccc3)C(C)=C1C2(C)C,1230,615,1.24,2.09,inactive,563,257,275,,inactive,661,,80.5,6.15,966,1.89,
CC(=O)O[C@@]12CO[C@@H]1C[C@H](OC(=O)C(C)(CO)CO)[C@@]1(C)C(=O)[C@H](OC(=O)C(C)(CO)CO)C3=C(C)[C@@H](OC(=O)[C@H](O)[C@@H](NC(=O)OC(C)(C)C)c4ccccc4)C[C@@](O)([C@@H](OC(=O)c4ccccc4)[C@H]21)C3(C)C,376,130,225,65.1,554 nM,159,104,1.25,263,,11.9,166,984,198,558,170,

# The next compounds have a lower GI50 (MCF7) than those just listed; values first:
GI50 (HL-60) [nM],GI50 (MCF7) [nM],GI50 (HeLa) [nM],GI50 (DU-145) [nM],GI50 (K562),GI50 (A549 [3]) [nM],GI50 (Huh-7) [nM],GI50 (A-431) [nM],GI50 (MOLT-4) [nM],GI50 (HT-1080),SMILES,GI50 [1] [nM],GI50 [2] [nM],GI50 [4] [nM],GI50 [5] [nM],GI50 [6] [nM],GI50 [7] [nM],RatioGI50 (A549 [8])
,1.29,3.21,5.57,7.01 nM,18.7,207,2.35,2.23,,CC(=O)O[C@H]1C(=O)[C@@]2(C)[C@H]([C@H](OC(=O)c3ccccc3)[C@]3(O)C[C@H](OC(=O)[C@H](O)[C@@H](NC(=O)c4ccccc4)c4ccccc4)C(C)=C1C3(C)C)[C@]1(OC(C)=O)CO[C@@H]1C[C@@H]2O [PACLITAXEL],1.79,3.89,3.6,2.39,3.09,2.41,
63.7,1.19,2.53,3.69,483 nM,1.94,87.5,2.27,268,,CCOCCO[C@H]1C(=O)[C@]2(C)[C@@H](OCCOCC)C[C@H]3OC[C@@]3(OC(C)=O)[C@H]2[C@H](OC(=O)c2ccccc2)[C@]2(O)C[C@H](OC(=O)[C@H](O)[C@@H](NC(=O)OC(C)(C)C)c3ccccc3)C(C)=C1C2(C)C,1.56,2.83,816,1.95,2.27,150,9
4.74,1.19,1.8,1.43,4.19 nM,1.48,,1.48,,,CO[C@H]1C(=O)[C@]2(C)[C@@H](OC)C[C@H]3OC[C@@]3(OC(C)=O)[C@H]2[C@H](OC(=O)c2ccccc2)[C@]2(O)C[C@H](OC(=O)[C@H](O)[C@@H](NC(=O)OC(C)(C)C)c3ccccc3)C(C)=C1C2(C)C [CABAZITAXEL],,1.41,467,0.539,0.355,1.28,
